From patent US20030003491A1, “Method for detecting or quantifying environmental hormones” (priority 2000, published 2003)

System: LH receptor (LH-R) mRNA expression in rat granulosa cells
Assay: Microassay for dioxins using FSH-induced LH-R mRNA expression in rat granulosa cells (Northern blotting, densitometry)
Type: cell-based
Conditions: for amount of LH-R mRNA expressed relative to that without TCDD addition: normalised to GAPDH mRNA, N=3
Experimental: Rat granulosa cells were obtained from a juvenile female Wistar rat (purchased from Charles River Laboratories, Inc.) which had been injected with 2 mg of diethylstilbestrol (produced by Sigma Chemical Co.) dissolved in 0.1 ml of sesame oil once per day for 4 days. Specifically, the ovary of the juvenile female Wistar rat was removed and a hole was made in its follicle with a 25-gauge needle to take out granulosa cells. During this series of operations, the rat was treated according to the NIH guidelines (Biosafety in microbiological and biomedical laboratories). Then, the obtained granulosa cells were washed and centrifuged to collect them. The viability of the cells was determined by the known trypan blue exclusion method.
The obtained granulosa cells (viability: over 90%) were cultured in Ham's F-12/DME (1:1 vol/vol) (produced by Gibco Laboratories) containing 1.1 g/l NaHCO3, 40 mg/l gentamicin sulfate (produced by Sigma Chemical Co.), 1 mg/l Fungizone (produced by Gibco Laboratories) and 100 mg/l bovine serum albumin (BSA) on a collagen-coated plate in a moist atmosphere (5% CO2, 95% air) at 37° C. [Nakamura, M., et al., Endocrinology, 133, 538-544 (1993)]. The granulosa cells obtained by the culturing were used in Examples.
The rat granulosa cells obtained in Reference Example 1 (5×10^6 living cells) were cultured in 5 ml of a serum-free medium [Ham's F-12/DME (1:1 vol/vol)] on a plate of 60 mm diameter for 24 hours, and the resulting culture was allowed to stand separately in the presence of 30 ng/ml rat FSH (I-8) [obtained from National Hormone and Pituitary Distribution Program (Bethesda Md.)] and in the presence of FSH (30 ng/ml) and 2,3,7,8-tetrachlorodibenzop-dioxin (TCDD) [Sigma Chemical Co.] (1, 10 and 100 pmol/l). TCDD was used after being dissolved in dimethyl sulfoxide.
After culturing was stopped 24, 48 and 72 hours later, RNAs formed in the cells were extracted to obtain pellets of the RNA mixture according to the AGTC method [trade name: Isogen, produced by Nippon Gene Co., Ltd., Chomezynski, P. and Sacchi, N., Anal. Biochem., 162, 156-159 (1987)]. To inhibit RNase, 15 μg of the obtained pellets was dissolved in diethyl-pyrocarbonate-treated water. The resulting solution was subjected to denatured agarose gel electrophoresis and the RNAs were transferred to a nylon membrane (trade name: Biodyne, produced by ICN) to carry out Northern blotting analysis. A film (trade name: Kodak X-Omat, produced by Eastman Kodak Co.) was exposed to the nylon membrane according to the standard manual of a nucleic acid detection kit (produced by Boehringer Mannheim) for fluorescence detection using 2202 UnitroScan Laser Densitometer (produced by LKB Co., Ltd.) to determine the mRNAs.
Rat LH-R mRNA was prepared according to the description in Mol. Cell. Endocrinol., 82, 259-263 (1991). The obtained rat […] into the EcoRI site of Bluescript ks (+) vector, followed by subcloning and linearization with BglII [Nakamura, K., Nakamura, M., Igarashi, S., Miyamoto, K., Eto, Y., Ibuki, Y., and Minegishi, T., Endocrinology, 134, 2329-2335 (1994)]. Then, digoxigenin-labeled LH-R cRNA corresponding to nucleotide numbers 440 to 2560 of the rat LH-R mRNA was prepared by in vitro transcription using T3 RNA polymerase and an RNA-labeling kit.
Each of the rat LH-R mRNAs (5.4 kb) obtained in the above (1) was determined according to the luminescence intensity method. The luminescence intensity was measured with LKB 2202 UnitroScan Laser Densitometer (produced by LKB Co., Ltd.) using the probe prepared in the above (2).
The amount of each rat LH-R mRNA expressed was determined using the amount of GAPDH (glyceraldehyde 3-phosphate dehydrogenase) mRNA expressed as a reference value to obtain the relative value (%) based on the control [addition of only FSH (30 ng/ml)]. The data were expressed in terms of […] of the values obtained by carrying out culturing three times under the same conditions. […]

Clc1cc2c(cc1Cl)Oc1cc(Cl)c(Cl)cc1O2 [TCDD, 2,3,7,8-tetrachlorodibenzop-dioxin]
expression of LH-R mRNA (Northern blotting) (1 pmol/l TCDD plus FSH 30 ng/ml, 48 hours): a little decrease | expression of LH-R mRNA (Northern blotting) (10 pmol/l TCDD plus FSH 30 ng/ml, 48 hours): clearly inhibited | amount of expressed LH-R mRNA versus FSH alone (Northern blotting) (10 pmol/l TCDD plus FSH 30 ng/ml, after 24 hours of standing): difference in the amount of expressed LH-R mRNA already appeared | amount of LH-R mRNA expressed relative to that without TCDD addition (10 pmol/l TCDD plus FSH 30 ng/ml, after 24 hours): less than 50% | amount of LH-R mRNA expressed relative to that without TCDD addition (10 pmol/l TCDD plus FSH 30 ng/ml, after 48 hours): less than 50% | amount of LH-R mRNA expressed relative to that without TCDD addition (10 pmol/l TCDD plus FSH 30 ng/ml, after 72 hours): less than 50% | concentration dependency of LH-R mRNA expression (densitometer) (1, 10, 100 pmol/l TCDD plus FSH 30 ng/ml, 48 hours): decreased in a manner dependent upon the amount of TCDD added
